Laboratory results as given in patent US20260250318A1, “COMPOSITIONS AND METHODS FOR CROSSING THE BLOOD BRAIN BARRIER” (VOYAGER THERAPEUTICS, INC., priority 2022, published 2026).

How the values were obtained:
[1] = system: brains, heart, liver, muscle, and DRG of the NHPs; experiment: Maturation of TTM-001 and TTM-002 capsids, NGS enrichment in NHP tissues; type: in vivo; conditions: relative to AAV9 control
How it was run: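 Variants carry mutations within and flanking the loop IV peptide insert: positions 450–466 were triplet-randomized, while positions 449–466 received low-frequency point mutations. The combined pool went into two NHPs, and each peptide was scored by NGS enrichment ratio against AAV9.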

brain = experiment: Matured TTM-001 and TTM-002 variants, NGS enrichment in mouse brain; type: in vivo, mice; conditions: relative to AAV9 control
[2] = NGS fold-enrichment of RNA, NHP brain
[3] = NGS fold-enrichment, DRG of NHPs
[4] = NGS fold-enrichment, NHP liver DNA
[5] = NGS fold-enrichment, NHP liver RNA
[6] = NGS fold-enrichment, NHP muscle
[7] = NGS fold-enrichment, RNA, brain of NHPs
[8] = NGS fold-enrichment, heart of NHPs
[9] = NGS fold-enrichment, liver DNA of NHPs
[10] = NGS fold-enrichment, liver RNA of NHPs
[11] = NGS fold-enrichment, muscle of NHPs
[12] = NGS fold-enrichment, brain of mice
[13] = NGS fold-enrichment, mouse brain
[14] = NGS fold-enrichment of matured AAV capsid variants, NHP brain, RNA

| Sequence | Fold Enrichment relative to AAV9, Brain (NHP) [1, 2] [fold] | Fold Enrichment relative to AAV9, DRG (NHP) [1, 3] [fold] | Fold Enrichment relative to AAV9, DRG (NHP) ([1]; NGS fold-enrichment, NHP DRG) [fold] | Fold Enrichment relative to AAV9, Heart (NHP) ([1]; NGS fold-enrichment, NHP heart) [fold] | Fold Enrichment relative to AAV9, Liver DNA (NHP) [1, 4] [fold] | Fold Enrichment relative to AAV9, Liver RNA (NHP) [1, 5] [fold] | Fold Enrichment relative to AAV9, Muscle (NHP) [1, 6] [fold] | Fold Enrichment relative to AAV9, Brain (NHP) [1, 7] [fold] | Fold Enrichment relative to AAV9, Heart (NHP) [1, 8] [fold] | Fold Enrichment relative to AAV9, Liver DNA (NHP) [1, 9] [fold] | Fold Enrichment relative to AAV9, Liver RNA (NHP) [1, 10] [fold] | Fold Enrichment relative to AAV9, Muscle (NHP) [1, 11] [fold] | Fold Enrichment relative to AAV9, Brain (Mouse) (brain; [12]) [fold] | Fold Enrichment relative to AAV9, Brain (Mouse) (brain; [13]) [fold] | Fold Enrichment relative to AAV9, Brain (NHP) [1, 14] [fold] | Fold Enrichment relative to AAV9, DRG (NHP) ([1]; NHP DRG) [fold] | Fold Enrichment relative to AAV9, Heart (NHP) ([1]; NHP heart) [fold] | Fold Enrichment relative to AAV9, Liver DNA (NHP) ([1]; NHP liver, DNA) [fold] | Fold Enrichment relative to AAV9, Liver RNA (NHP) ([1]; NHP liver, RNA) [fold] | Fold Enrichment relative to AAV9, Muscle (NHP) ([1]; NHP muscle) [fold] | other results |
| --- | --- | --- | --- | --- | --- | --- | --- | --- | --- | --- | --- | --- | --- | --- | --- | --- | --- | --- | --- | --- | --- |
| KATNGSGSPHSKAQNHQT | 82.627 | 0.000 | 0.000 | 0.176 | 0.057 | 0.155 | 0.000 | 82.627 | 0.176 | 0.057 | 0.155 | 0.000 | 66.207 | 66.207 | – | – | – | – | – | – | – |
| KTINGHESPHKSGRSQQT | 97.106 | – | 0.000 | 3.329 | 0.181 | 0.000 | 0.022 | – | – | – | – | – | – | 9.378 | – | – | – | – | – | – | – |
| KTRDASGSPHSKAQNQQT | – | – | – | – | – | – | – | – | – | – | – | – | – | – | 52.861 | 0.000 | 0.000 | 0.402 | 1.062 | 0.010 | Fold Enrichment relative to AAV9, Brain (Mouse) (brain; mouse brain): 52.089 fold |
| KTINGHDSPHKSRQDQHT | 75.595 | – | 0.000 | 0.049 | 0.045 | 0.030 | 0.118 | – | – | – | – | – | – | 8.540 | – | – | – | – | – | – | – |
| KTINGTGSPHSKAPNQLT | – | – | – | – | – | – | – | – | – | – | – | – | – | – | 58.738 | 0.000 | 0.000 | 0.035 | 0.229 | 0.000 | Fold Enrichment relative to AAV9, Brain (Mouse) (brain; mouse brain): 86.939 fold |
| KTINGHDSPHKIGQNQHA | 77.321 | – | 0.000 | 18.836 | 0.132 | 0.220 | 0.028 | – | – | – | – | – | – | 7.578 | – | – | – | – | – | – | – |
| KTINGIGSPHSKAQNLGT | – | 0.000 | – | – | – | – | – | 70.543 | 0.071 | 0.135 | 0.000 | 0.000 | 104.769 | – | – | – | – | – | – | – | – |
| KAINRSGSPHSKAQDQQT | – | – | – | – | – | – | – | – | – | – | – | – | – | – | 51.262 | 0.000 | 0.000 | 0.036 | 0.000 | 0.000 | Fold Enrichment relative to AAV9, Brain (Mouse) (brain; mouse brain): 54.631 fold |
| KTINGSGSPHSKAQAMHT | – | 0.000 | – | – | – | – | – | 62.756 | 0.000 | 0.393 | 0.976 | 0.010 | 84.056 | – | – | – | – | – | – | – | – |
